In patent US7507725B2, “Compounds with sulphonamide group and pharmaceutical compositions containing these compounds” (Schering AG, priority 2000, dated 2009):

Key:
[1] = tested on: erythrocytes; assay: Distribution of total radioactivity (3H/14C) on erythrocytes and plasma after one-time oral administration (FIG. 1); type: in vivo; settings: 3H-labeled steroid skeleton
Excerpt: There are indications that in oral administration, both radicals R^1 and R^2, if they are different from a hydrogen atom, are cleaved off and are replaced by a hydrogen atom, so that in this case, not the group —SO2NR^1R^2, but rather the group —SO2NH2 is provided for the uptake into erythrocytes or binding to erythrocytes. […] The data also confirm that substances according to the invention are enriched in the erythrocyte compartment relative to the plasma.

[2] = tested on: erythrocytes; assay: Stability of the prodrug and release of the active ingredient in erythrocytes, plasma and tissues; type: in vitro ADME
Excerpt: If the compounds act as a prodrug, the therapeutically desirable action is obtained by release, especially hydrolytic cleavage, of the active ingredient that is contained in the product and/or its metabolites.

[3] = target: T1, carboanhydrase II (hCA II) (Homo sapiens, UniProt P00918); assay: Affinity chromatography of erythrocyte lysate proteins on immobilized estradiol sulfamate derivative, eluate analysed by Western blot; type: binding; settings: ligand J1242 immobilized on E-AH-sepharose
T1 construct: proteins of erythrocyte-lysates were separated on the column; from tissue; host or cells: erythrocytes (lysate)
Excerpt: In FIG. 3, the chemical synthesis of a linkable estradiol sulfamate (J1242) is shown, which is described in S. Schwarz et al., Steroids 64 (1999) 460–471.
After the estradiol sulfamate derivative is immobilized in the column material (E-AH-sepharose), proteins of erythrocyte-lysates were separated on the column. The protein that is responsible for the binding of estradiol sulfamate in erythrocytes was adsorbed on the surface of the affinity chromatography column. After the protein remaining on the column was washed and eluted with an acetate buffer, the eluate was analyzed with use of the “Western Plot Technique” (see FIGS. 4 and 5).

[4] = Hepatic estrogenicity after oral administration; type: in vivo
Excerpt: After oral administration, estradiol sulfamate is resorbed by the gastrointestinal tract and is taken up into erythrocytes or bonded to erythrocytes. […] The estradiol sulfamate is enriched in the erythrocytes by a multiple (factor: 98:2) of the plasma concentration, whereby a depot of the estradiol sulfamate is produced that makes possible the slow release of the estradiol sulfamate into peripheral tissues and target tissues (see FIG. 2). This makes possible an extension of the dwell time of the estradiol sulfamate in the organism, and the occurrence of very high levels in the plasma is avoided.

Molecule	presence of the 14C-labeled acyl substituent of the sulfamate radical in the blood [1]	site of release of the active ingredient from the prodrug [2]	stability of the compound in erythrocytes ([2]; erythrocytes)	binding to carrier protein in erythrocytes [3]	hepatic estrogenicity [4]
17β-hydroxy-estra-1,3,5(10)-trien-3-yl-(N-acetyl)sulfamate [J1045]	no longer present in the-blood	–	–	–	–
C[C@]12CC[C@@H]3c4ccc(OS(N)(=O)=O)cc4CC[C@H]3[C@@H]1CC[C@@H]2O [J995, estradiol sulfamate]	–	only in the plasma or in tissues	stable in the erythrocytes	binds to the carboanhydrase II (hCA II)	reduced hepatic estrogenicity
